Paper PMC10176470, “Engaging a Non-catalytic Cysteine Residue Drives Potent and Selective Inhibition of Caspase-6” (Journal of the American Chemical Society, 2023)

What was measured:
Assay type in all cases: cell-based
[1] = target: proteins of HEK293T cells transiently overexpressing caspase-6 (Homo sapiens, UniProt P00338); conditions: Probe; protein LDHA P00338
[2] = target: proteins of HEK293T cells transiently overexpressing caspase-6 (Homo sapiens, UniProt P02533); conditions: Probe; protein KRT14 P02533
[3] = target: proteins of HEK293T cells transiently overexpressing caspase-6 (Homo sapiens, UniProt P04843); conditions: exp_ref Probe; protein RPN1 (P04843); analysis C6
[4] = target: proteins of HEK293T cells transiently overexpressing caspase-6 (Homo sapiens, UniProt P05141); conditions: exp_ref Probe; protein SLC25A5 (P05141); analysis C6
[5] = target: T1, proteins of HEK293T cells transiently overexpressing caspase-6 (Homo sapiens, UniProt P05165)
T1 sequence (P05165 53-728): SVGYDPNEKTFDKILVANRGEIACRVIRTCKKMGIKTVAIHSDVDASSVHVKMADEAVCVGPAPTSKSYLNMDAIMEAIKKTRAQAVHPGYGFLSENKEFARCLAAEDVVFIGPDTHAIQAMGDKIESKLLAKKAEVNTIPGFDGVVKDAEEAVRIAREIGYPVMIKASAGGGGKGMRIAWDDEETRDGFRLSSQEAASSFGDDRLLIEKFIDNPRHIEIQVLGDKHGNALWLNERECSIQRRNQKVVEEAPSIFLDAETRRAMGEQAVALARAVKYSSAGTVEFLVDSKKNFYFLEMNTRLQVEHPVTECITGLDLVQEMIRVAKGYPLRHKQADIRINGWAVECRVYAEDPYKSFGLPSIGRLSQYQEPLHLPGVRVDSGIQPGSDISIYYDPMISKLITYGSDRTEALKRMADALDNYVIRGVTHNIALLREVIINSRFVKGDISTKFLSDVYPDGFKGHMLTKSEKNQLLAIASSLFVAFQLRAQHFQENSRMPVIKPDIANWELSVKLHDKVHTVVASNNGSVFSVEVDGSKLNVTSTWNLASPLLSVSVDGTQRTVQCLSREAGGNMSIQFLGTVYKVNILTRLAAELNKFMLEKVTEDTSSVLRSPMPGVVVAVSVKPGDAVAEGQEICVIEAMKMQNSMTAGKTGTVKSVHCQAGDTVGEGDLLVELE

[6] = target: proteins of HEK293T cells transiently overexpressing caspase-6 (Homo sapiens, UniProt P06744); conditions: protein GPI (P06744), analysis C6
[7] = target: proteins of HEK293T cells transiently overexpressing caspase-6 (Homo sapiens, UniProt P08758); conditions: exp_ref Probe; protein ANXA5 (P08758); analysis C6
[8] = target: proteins of HEK293T cells transiently overexpressing caspase-6 (Homo sapiens, UniProt P23526); conditions: exp_ref Probe; protein AHCY (P23526); analysis C6
[9] = target: proteins of HEK293T cells transiently overexpressing caspase-6 (Homo sapiens, UniProt P37802); conditions: exp_ref Probe; protein TAGLN2 (P37802); analysis C6
[10] = target: proteins of HEK293T cells transiently overexpressing caspase-6 (Homo sapiens, UniProt P38646); conditions: protein HSPA9 (P38646)
[11] = target: proteins of HEK293T cells transiently overexpressing caspase-6 (Homo sapiens, UniProt P41250); conditions: exp_ref Probe; protein GARS (P41250); analysis C6
[12] = target: proteins of HEK293T cells transiently overexpressing caspase-6 (Homo sapiens, UniProt P46782); conditions: protein RPS5 (P46782)
[13] = target: proteins of HEK293T cells transiently overexpressing caspase-6 (Homo sapiens, UniProt P62244); conditions: exp_ref Probe; protein RPS15A (P62244); analysis C6
[14] = target: proteins of HEK293T cells transiently overexpressing caspase-6 (Homo sapiens, UniProt P62888); conditions: exp_ref Probe; protein RPL30 (P62888); analysis C6
[15] = target: proteins of HEK293T cells transiently overexpressing caspase-6 (Homo sapiens, UniProt P62917); conditions: Probe; protein RPL8 P62917
[16] = target: proteins of HEK293T cells transiently overexpressing caspase-6 (Homo sapiens, UniProt Q04917); conditions: Probe; protein YWHAH Q04917
[17] = target: proteins of HEK293T cells transiently overexpressing caspase-6 (Homo sapiens, UniProt Q08211); conditions: exp_ref Probe; protein DHX9 (Q08211); analysis C6
[18] = target: proteins of HEK293T cells transiently overexpressing caspase-6 (Homo sapiens, UniProt Q12906); conditions: exp_ref Probe; protein ILF3 (Q12906); analysis C6
[19] = target: proteins of HEK293T cells transiently overexpressing caspase-6 (Homo sapiens, UniProt Q13263); conditions: protein TRIM28 (Q13263)
[20] = target: proteins of HEK293T cells transiently overexpressing caspase-6 (Homo sapiens, UniProt Q15393); conditions: exp_ref Probe; protein SF3B3 (Q15393); analysis C6
[21] = test system: proteins of HEK293T cells transiently overexpressing caspase-6; conditions: exp_ref Probe; protein CBSL (P0DN79); analysis C6

Chain of proteins of HEK293T cells transiently overexpressing caspase-6 (Homo sapiens, UniProt Q13263) (Q13263 whole entry): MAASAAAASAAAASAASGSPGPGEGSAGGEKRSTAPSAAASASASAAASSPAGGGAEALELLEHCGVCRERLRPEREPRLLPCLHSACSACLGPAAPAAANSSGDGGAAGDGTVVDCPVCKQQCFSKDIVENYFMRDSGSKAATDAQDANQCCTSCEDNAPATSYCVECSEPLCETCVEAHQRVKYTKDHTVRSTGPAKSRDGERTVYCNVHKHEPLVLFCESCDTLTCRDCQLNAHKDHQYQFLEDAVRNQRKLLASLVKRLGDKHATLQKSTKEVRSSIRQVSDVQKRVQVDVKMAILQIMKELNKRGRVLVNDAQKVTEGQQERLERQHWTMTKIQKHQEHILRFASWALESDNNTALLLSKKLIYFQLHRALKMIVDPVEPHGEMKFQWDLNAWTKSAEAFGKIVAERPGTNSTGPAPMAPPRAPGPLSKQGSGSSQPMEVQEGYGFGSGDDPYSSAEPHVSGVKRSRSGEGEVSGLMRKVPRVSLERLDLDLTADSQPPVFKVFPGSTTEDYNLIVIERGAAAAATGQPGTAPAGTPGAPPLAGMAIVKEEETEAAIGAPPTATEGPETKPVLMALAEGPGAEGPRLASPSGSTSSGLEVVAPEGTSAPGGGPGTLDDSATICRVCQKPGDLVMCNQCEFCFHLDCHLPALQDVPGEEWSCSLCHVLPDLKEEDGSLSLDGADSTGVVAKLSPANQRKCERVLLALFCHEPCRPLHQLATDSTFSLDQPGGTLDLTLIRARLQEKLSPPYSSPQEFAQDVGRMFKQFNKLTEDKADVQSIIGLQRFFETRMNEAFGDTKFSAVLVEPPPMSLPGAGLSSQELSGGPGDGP
Chain of proteins of HEK293T cells transiently overexpressing caspase-6 (Homo sapiens, UniProt P38646) (P38646 47-679): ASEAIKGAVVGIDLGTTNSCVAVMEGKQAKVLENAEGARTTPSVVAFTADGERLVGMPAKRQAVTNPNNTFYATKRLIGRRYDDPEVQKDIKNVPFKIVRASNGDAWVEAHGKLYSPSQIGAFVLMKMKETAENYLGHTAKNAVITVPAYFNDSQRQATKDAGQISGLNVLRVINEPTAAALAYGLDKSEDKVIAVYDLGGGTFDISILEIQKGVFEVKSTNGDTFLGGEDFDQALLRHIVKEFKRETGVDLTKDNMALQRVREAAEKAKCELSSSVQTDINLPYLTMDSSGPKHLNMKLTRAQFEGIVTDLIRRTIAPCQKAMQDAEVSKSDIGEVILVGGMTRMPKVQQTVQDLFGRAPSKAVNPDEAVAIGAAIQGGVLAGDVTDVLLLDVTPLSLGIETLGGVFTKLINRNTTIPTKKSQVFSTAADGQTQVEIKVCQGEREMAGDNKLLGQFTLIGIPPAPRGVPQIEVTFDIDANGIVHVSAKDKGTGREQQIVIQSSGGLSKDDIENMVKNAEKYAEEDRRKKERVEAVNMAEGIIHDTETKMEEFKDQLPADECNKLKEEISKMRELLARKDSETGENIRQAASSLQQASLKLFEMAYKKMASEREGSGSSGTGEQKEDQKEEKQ
Chain of proteins of HEK293T cells transiently overexpressing caspase-6 (Homo sapiens, UniProt P05141) (P05141 whole entry): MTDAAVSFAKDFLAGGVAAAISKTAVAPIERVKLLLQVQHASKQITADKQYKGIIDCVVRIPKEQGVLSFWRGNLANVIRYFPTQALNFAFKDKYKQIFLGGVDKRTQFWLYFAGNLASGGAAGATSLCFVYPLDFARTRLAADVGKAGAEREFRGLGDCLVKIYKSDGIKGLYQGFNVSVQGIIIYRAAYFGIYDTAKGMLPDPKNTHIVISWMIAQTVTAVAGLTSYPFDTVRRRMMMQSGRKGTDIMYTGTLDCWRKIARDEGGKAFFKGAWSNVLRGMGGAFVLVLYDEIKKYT
Chain of proteins of HEK293T cells transiently overexpressing caspase-6 (Homo sapiens, UniProt Q08211) (Q08211 whole entry): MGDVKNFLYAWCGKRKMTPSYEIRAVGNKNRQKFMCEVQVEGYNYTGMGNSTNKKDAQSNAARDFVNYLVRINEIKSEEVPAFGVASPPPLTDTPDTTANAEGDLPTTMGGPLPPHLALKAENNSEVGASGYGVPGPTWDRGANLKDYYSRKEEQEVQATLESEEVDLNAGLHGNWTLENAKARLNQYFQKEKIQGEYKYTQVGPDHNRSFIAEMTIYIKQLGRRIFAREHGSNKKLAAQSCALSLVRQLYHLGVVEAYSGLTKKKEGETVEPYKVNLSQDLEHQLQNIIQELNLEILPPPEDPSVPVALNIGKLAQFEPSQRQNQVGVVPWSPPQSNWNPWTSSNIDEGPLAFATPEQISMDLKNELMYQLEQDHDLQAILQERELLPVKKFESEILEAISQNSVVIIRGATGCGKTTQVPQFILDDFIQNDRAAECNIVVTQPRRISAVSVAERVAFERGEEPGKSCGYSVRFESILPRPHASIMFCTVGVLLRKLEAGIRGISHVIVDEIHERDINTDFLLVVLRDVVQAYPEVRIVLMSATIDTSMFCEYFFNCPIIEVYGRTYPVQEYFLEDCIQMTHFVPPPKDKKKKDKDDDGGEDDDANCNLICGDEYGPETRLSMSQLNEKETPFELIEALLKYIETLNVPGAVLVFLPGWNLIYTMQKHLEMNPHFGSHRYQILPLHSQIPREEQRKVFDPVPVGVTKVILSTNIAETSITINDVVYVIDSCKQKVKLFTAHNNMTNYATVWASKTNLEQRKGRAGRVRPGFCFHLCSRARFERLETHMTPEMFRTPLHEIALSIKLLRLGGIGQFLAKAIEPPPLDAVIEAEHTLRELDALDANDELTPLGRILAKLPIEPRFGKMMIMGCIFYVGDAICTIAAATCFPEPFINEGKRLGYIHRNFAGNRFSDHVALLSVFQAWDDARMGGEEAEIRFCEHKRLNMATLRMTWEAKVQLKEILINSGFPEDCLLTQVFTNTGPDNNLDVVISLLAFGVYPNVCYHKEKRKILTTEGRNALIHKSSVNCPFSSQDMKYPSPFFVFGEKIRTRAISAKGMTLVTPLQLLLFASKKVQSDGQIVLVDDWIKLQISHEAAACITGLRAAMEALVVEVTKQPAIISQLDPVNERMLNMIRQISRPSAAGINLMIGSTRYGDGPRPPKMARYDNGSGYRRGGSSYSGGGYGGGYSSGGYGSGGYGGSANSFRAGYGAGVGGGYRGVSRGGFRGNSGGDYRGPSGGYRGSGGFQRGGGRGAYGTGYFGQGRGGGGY
Chain of proteins of HEK293T cells transiently overexpressing caspase-6 (Homo sapiens, UniProt P41250) (P41250 37-739): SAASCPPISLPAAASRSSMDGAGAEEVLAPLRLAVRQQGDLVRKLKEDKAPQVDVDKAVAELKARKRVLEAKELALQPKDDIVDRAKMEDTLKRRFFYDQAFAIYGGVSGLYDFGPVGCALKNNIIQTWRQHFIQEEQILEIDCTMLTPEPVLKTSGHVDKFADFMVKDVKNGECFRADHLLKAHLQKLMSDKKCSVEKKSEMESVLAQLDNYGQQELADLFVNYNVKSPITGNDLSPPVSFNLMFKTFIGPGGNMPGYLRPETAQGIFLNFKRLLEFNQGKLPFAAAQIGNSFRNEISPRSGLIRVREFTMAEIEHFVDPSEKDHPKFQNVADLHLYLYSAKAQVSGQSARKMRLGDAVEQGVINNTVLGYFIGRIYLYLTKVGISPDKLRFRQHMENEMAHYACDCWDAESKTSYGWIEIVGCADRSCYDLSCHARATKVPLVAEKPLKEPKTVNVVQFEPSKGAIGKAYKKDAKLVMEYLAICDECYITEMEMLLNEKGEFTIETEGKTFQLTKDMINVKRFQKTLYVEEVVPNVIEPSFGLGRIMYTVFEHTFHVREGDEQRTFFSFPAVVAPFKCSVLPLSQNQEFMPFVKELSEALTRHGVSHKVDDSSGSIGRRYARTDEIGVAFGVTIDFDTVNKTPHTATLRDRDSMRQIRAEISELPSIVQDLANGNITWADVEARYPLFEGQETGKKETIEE
Chain of proteins of HEK293T cells transiently overexpressing caspase-6 (Homo sapiens, UniProt P37802) (P37802 whole entry): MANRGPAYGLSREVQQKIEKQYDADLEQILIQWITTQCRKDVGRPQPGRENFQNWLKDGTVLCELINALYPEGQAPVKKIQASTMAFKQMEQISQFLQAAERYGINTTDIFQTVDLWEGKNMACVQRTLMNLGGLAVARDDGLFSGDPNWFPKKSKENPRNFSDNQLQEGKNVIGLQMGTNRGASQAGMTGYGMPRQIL
Chain of proteins of HEK293T cells transiently overexpressing caspase-6 (Homo sapiens, UniProt Q12906) (Q12906 whole entry): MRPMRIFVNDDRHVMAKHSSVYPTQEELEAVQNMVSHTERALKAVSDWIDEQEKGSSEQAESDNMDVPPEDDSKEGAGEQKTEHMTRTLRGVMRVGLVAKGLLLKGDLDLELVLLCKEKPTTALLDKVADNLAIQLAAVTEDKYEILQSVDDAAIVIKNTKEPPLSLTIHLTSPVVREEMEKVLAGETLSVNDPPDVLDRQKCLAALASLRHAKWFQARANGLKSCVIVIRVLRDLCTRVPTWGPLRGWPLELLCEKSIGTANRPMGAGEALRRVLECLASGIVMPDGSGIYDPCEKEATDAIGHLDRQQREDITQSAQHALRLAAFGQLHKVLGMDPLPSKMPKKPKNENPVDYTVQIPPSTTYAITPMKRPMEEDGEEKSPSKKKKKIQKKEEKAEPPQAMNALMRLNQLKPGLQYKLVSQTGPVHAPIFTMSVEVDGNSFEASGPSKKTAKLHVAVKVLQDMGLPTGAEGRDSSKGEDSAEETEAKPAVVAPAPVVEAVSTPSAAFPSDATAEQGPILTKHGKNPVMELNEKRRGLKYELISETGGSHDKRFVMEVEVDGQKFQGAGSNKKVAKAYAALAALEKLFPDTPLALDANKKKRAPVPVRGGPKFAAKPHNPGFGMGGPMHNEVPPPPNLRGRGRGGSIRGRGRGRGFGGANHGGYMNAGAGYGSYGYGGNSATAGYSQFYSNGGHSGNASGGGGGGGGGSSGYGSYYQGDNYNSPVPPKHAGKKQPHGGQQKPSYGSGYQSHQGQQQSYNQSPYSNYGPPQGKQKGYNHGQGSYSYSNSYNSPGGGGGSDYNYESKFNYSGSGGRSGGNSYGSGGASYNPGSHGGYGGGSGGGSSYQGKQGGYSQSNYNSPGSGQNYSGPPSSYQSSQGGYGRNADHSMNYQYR

## C#CCOc1ccc([C@@H]2C[C@@H](C(=O)Nc3ccc(OC(F)(F)F)cc3)CN(S(=O)(=O)C=C)C2)cc1 (relative stereo) [13-t]
[1]
  enrich.exp.med: -0.5222
[2]
  enrich.exp.med: -2.018
[3]
  enrich.exp.med: 1.117
[4]
  enrich.exp.med: 0.9373
[5]; Probe, protein PCCA P05165
  enrich.exp.med: -2.194
[5]; protein PCCA (P05165)
  enrich.exp.med.lin: 0.2185
  enrich.exp.med.log2: -2.194
[6]; Expt Probe
  enrich.exp.med.lin: 5.762
  enrich.exp.med.log2: 2.527
[6]; exp_ref Probe
  enrich.exp.med: 2.527
[7]
  enrich.exp.med: 0.2384
[8]
  enrich.exp.med: 0.06916
[9]
  enrich.exp.med: 0.7525
[10]; exp_ref Probe, analysis C6
  enrich.exp.med: 0.7965
[10]
  enrich.exp.med.lin: 1.737
  enrich.exp.med.log2: 0.7965
[11]
  enrich.exp.med: 1.008
[12]
  enrich.exp.med.lin: 3.054
  enrich.exp.med.log2: 1.611
[12]; exp_ref Probe, analysis C6
  enrich.exp.med: 1.611
[13]
  enrich.exp.med: 0.1255
[14]
  enrich.exp.med: 0.3258
[15]
  enrich.exp.med: -0.8445
[16]
  enrich.exp.med: -1.452
[17]
  enrich.exp.med: 0.006951
[18]
  enrich.exp.med: 0.1427
[19]; exp_ref Probe, analysis C6
  enrich.exp.med: 0.8833
[19]
  enrich.exp.med.lin: 1.845
  enrich.exp.med.log2: 0.8833
[20]
  enrich.exp.med: -0.1408
[21]
  enrich.exp.med: -0.1387
